Measured values reported in patent US10988440B2, “FTO inhibitors” (National Institute of Biological Sciences, Beijing, priority 2015, dated 2021).
Like-named read-outs stand apart in the source and are kept apart here.

Tests used:
[1] = target: FTO (Homo sapiens, UniProt Q9C0B1); assay: demethylation reaction catalyzed by FTO (enzymatic inhibition, HPLC-MS/MS of N6-mA and A); type: biochemical
[2] = target: T1, COMT enzyme (Homo sapiens, UniProt P21964); assay: COMT inhibition assay (reaction kinetic model, esculetin fluorescence); type: biochemical; details: for inhibition at 0.05 µM: read-out: COMT inhibition at 50 nM; for inhibition at 0.2 µM: read-out: COMT inhibition at 200 nM
T1 construct: COMT (μM); other: at 200 nM; other: at 50 nM; The reaction system contains 1U COMT enzyme, test article, 4 μM Esculetin, 0.6 mM AdoMet, 50 mM K3PO4, and 10 mM MgCl2
T1 sequence (P21964 1-271): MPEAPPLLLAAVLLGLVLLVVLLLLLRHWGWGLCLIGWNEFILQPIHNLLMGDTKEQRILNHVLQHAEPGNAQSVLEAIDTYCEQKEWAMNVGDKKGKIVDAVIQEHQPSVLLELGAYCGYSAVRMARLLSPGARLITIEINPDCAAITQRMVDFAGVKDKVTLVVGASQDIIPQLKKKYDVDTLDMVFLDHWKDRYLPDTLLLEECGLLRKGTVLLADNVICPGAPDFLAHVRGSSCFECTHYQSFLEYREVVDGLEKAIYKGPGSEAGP

[3] = tested on: COMT enzyme; assay: as above; type: biochemical; details: normalized COMT/FTO value: (COMTcompound/FTOcompound)/(COMTentacapone/FTOentacapone)
[4] = Rat liver microsome stability assay; type: in vitro ADME; details: liver microsomes, pH 7.4, rat liver microsome 1 mg/ml, test compound 2 μM, NADPH 1 mM, 37° C.
[5] = exemplary IC50 data of representative compounds, read-out: Enzymatic inhibition (IC50)
[6] = selectivity table, read-out: FTO
[7] = read-out: Rat Liver Microsome CLint (μL/min/mg protein)
[8] = read-out: Rat Liver Microsome T½

FTO, sequence (Q9C0B1 whole entry): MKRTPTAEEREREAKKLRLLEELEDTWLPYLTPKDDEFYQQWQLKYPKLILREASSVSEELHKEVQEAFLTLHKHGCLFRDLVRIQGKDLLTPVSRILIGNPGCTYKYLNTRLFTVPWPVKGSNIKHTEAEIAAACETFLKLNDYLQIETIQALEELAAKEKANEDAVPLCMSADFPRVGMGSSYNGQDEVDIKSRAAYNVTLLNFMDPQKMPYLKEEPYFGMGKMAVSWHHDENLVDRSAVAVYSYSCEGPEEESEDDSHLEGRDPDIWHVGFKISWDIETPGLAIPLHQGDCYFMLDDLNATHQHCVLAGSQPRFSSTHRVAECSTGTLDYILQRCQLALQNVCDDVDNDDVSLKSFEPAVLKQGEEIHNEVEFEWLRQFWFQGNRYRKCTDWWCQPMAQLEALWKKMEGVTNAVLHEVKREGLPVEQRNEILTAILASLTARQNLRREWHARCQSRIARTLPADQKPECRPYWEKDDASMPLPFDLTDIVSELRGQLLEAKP

IC50 [1, 5] [nM]	IC50 [1, 6] [nM]	IC50 [2] [nM]	Selectivity Index* [3]	microsomal CLint at 1 h, 2 µM [4, 7] [µL/min/mg]	half-life at 1 h, 2 µM [4, 8] [h]	inhibition at 0.05 µM [2] [%]	inhibition at 0.2 µM [2] [%]	microsomal CLint at 2 μM [4, 7] [µL/min/mg]	half-life at 2 μM [4, 8] [h]	Compound
< 1000	300	24	4.00	1.6	7.22					N#C/C(=C\c1cc(O)c(O)c([N+](=O)[O-])c1)c1cnc(C(=O)O)cn1 [Compound 655, (Z)-5-(1-cyano-2-(3,4-dihydroxy-5-nitrophenyl)vinyl)pyrazine-2-carboxylic Acid]
< 1000	750	3560	237.33							N#C/C(C(=O)N1CCC1)=C(/O)c1cc(O)c(O)c([N+](=O)[O-])c1 [Compound 701, (Z)-2-(azetidine-1-carbonyl)-3-(3,4-dihydroxy-5-nitrophenyl)-3-hydroxyacrylonitrile]
< 1000	750			1.1	10.5	-3	33			N#C/C(=C(/O)c1cc(O)c(O)c([N+](=O)[O-])c1)c1cnc(C(=O)O)cn1 [Compound 697, (E)-5-(1-cyano-2-(3,4-dihydroxy-5-nitrophenyl)-2-hydroxyvinyl) pyrazine-2-carboxylic Acid]
< 1000	1000	33		284	0.0407					N#C/C(=C\c1cc(O)c(O)c([N+](=O)[O-])c1)C(=O)N1CCC1 [Compound 687]
~1000	1000			2.2	5.25	12	26			N#C/C(C(=O)N1CCCCC1)=C(/O)c1cc(O)c(O)c([N+](=O)[O-])c1 [Compound 661, (Z)-3-(3,4-dihydroxy-5-nitrophenyl)-3-hydroxy-2-(piperidine-1-carbonyl)acrylonitrile]
< 1000	750			10.3	1.12	35	64			N#C/C(C(=O)N1CCCCC1)=C(/N)c1cc(O)c(O)c([N+](=O)[O-])c1 [Compound 661N, 3-amino-3-(3,4-dihydroxy-5-nitrophenyl)-2-(piperidine-1-carbonyl)acrylonitrile]

Further lines, the compound ahead of its results:

Compound	IC50 [1, 5] [nM]	IC50 [1, 6] [nM]	IC50 [2] [nM]	Selectivity Index* [3]	microsomal CLint at 1 h, 2 µM [4, 7] [µL/min/mg]	half-life at 1 h, 2 µM [4, 8] [h]	inhibition at 0.05 µM [2] [%]	inhibition at 0.2 µM [2] [%]	microsomal CLint at 2 μM [4, 7] [µL/min/mg]	half-life at 2 μM [4, 8] [h]
N#C/C(=C(/O)c1cc(O)c(O)c([N+](=O)[O-])c1)c1nccs1 [Compound 503, 3-(3,4-dihydroxy-5-nitrophenyl)-3-oxo-2-(thiazol-2-yl)propanenitrile]	~1000	1500			0.5	23.1	9	24		
N#C/C(=C\c1cc(O)c(O)c([N+](=O)[O-])c1)c1cnccn1 [Compound 396]	< 1000	250	108	21.60	20.9	0.553				
N#CC(=Cc1cc(O)c(O)c([N+](=O)[O-])c1)c1ccccn1 (stereo in doubt) [Compound 315, (E)-3-(3,4-dihydroxy-5-nitrophenyl)-2-(pyridin-2-yl)acrylonitrile]	~1000	1000			310	0.0373	19	70		
N#C/C(=C(/O)c1cc(O)c(O)c([N+](=O)[O-])c1)c1cnccn1 [Compound 523, 3-(3,4-dihydroxy-5-nitrophenyl)-3-hydroxy-2-(pyrazin-2-yl)acrylonitrile]	< 1000	500	105	10.50	2.9	3.98				
N#C/C(=C\c1cc(O)c(O)c([N+](=O)[O-])c1)c1nccs1 [Compound 390]	~1000	1000			266	0.0435	12	36		
N#C/C(=C(/O)c1cc(O)c(O)c([N+](=O)[O-])c1)c1ccncn1 [Compound 525, (E)-3-(3,4-dihydroxy-5-nitrophenyl)-3-hydroxy-2-(pyrimidin-4-yl)acrylonitrile]	< 1000	500			10.9	1.06	39	74		
N#C/C(C(=O)Nc1nccs1)=C(/O)c1cc(O)c(O)c([N+](=O)[O-])c1 [Compound 374, 2-cyano-3-(3,4-dihydroxy-5-nitrophenyl)-3-oxo-N-(thiazol-2-yl)propanamide]	< 1000	500	65	6.50	0.6	19.2				
CCN(CC)C(=O)/C(C#N)=C(\N)c1cc(O)c(O)c([N+](=O)[O-])c1 [Compound 347N]	< 1000	500	214	21.40	4.9	2.35				
CCN(CC)C(=O)C(C#N)=C(NC)c1cc(O)c(O)c([N+](=O)[O-])c1 [Compound 347M, 2-cyano-3-(3,4-dihydroxy-5-nitrophenyl)-N,N-diethyl-3-(methylamino)acrylamide]	~1000	1000	162	8.10					12.2	0.947
N#C/C(=C\c1cc(O)c(O)c([N+](=O)[O-])c1)C(=O)Nc1nccs1 [Compound 331, (E)-2-cyano-3-(3,4-dihydroxy-5-nitrophenyl)-N-(thiazol-2-yl)acrylamide]	~1000	1000			7.4	1.56	25	54		
